This is an account of results in PubChem BioAssay (NCI).

Some test systems named below: EKVX NSCLC; HCT-116 colon; HL-60(TB) leukemia; HOP-92 NSCLC; NCI-H522 lung; OVCAR-4 ovarian; OVCAR-8 ovarian; SF-295 CNS; SNB-75 CNS; UACC-257 melanoma.
Holding throughout (experiment): DTP human tumour cell line panel, 48 h

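In this assay, cells in 96-well plates receive the compound at five concentrations for 48 hours. Endpoints are linearly interpolated between the surrounding concentrations. GI50 is the concentration that inhibits growth by half. TGI marks complete inhibition of growth.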

In the case of `COc1cc2nc(N3CCCC3)nc(NCc3ccccc3)c2cc1OC`, the GI50 with EKVX NSCLC is 6.04 µM; with HCT-116 colon it was 1.82 µM; in the experiment with HL-60(TB) leukemia, 2.07 µM; in the experiment on HOP-92 NSCLC, 2.36 µM; in the experiment with NCI-H522 lung, 2.14 µM; with OVCAR-4 ovarian, 2.95 µM. The GI50 is 3.2 µM in the experiment with OVCAR-8 ovarian, 1.84 µM with SF-295 CNS, 1.69 µM in the experiment with SNB-75 CNS and 1.96 µM with UACC-257 melanoma. The TGI turned out to be 19.2 µM in the experiment with EKVX NSCLC; 4.12 µM in the experiment on HCT-116 colon; 4.33 µM with HL-60(TB) leukemia; 14 µM with HOP-92 NSCLC; 4.96 µM in the experiment with NCI-H522 lung; 11.3 µM in the experiment on OVCAR-4 ovarian. Also, the TGI with OVCAR-8 ovarian was 13.7 µM; in the experiment with SF-295 CNS it was 3.46 µM; with SNB-75 CNS it was 5.38 µM; in the experiment on UACC-257 melanoma, 4.04 µM.

In the case of `C=C(C(N)=O)c1ccc([N+](=O)[O-])o1`, the total growth inhibition concentration (TGI) in the experiment with EKVX NSCLC worked out at 42 µM; in the experiment on HCT-116 colon, 14.7 µM; in the experiment with HL-60(TB) leukemia it was 6.12 µM; in the experiment on HOP-92 NSCLC, 19.5 µM; in the experiment on NCI-H522 lung, 4.24 µM; in the experiment with OVCAR-4 ovarian, 29 µM. In addition, the TGI is 10.6 µM with OVCAR-8 ovarian, > 100 µM in the experiment with SF-295 CNS, 37.1 µM in the experiment with SNB-75 CNS and 21.7 µM in the experiment with UACC-257 melanoma.

For `Cc1ccccc1OCC(O)CN1CCN(c2ccc(Cl)cc2)CC1` (centres undefined), the GI50 in the experiment on EKVX NSCLC was 13.7 µM; in the experiment on HCT-116 colon, 14.6 µM; with HL-60(TB) leukemia it was 17.6 µM; with HOP-92 NSCLC, 10 µM; in the experiment with NCI-H522 lung it was 14.1 µM; in the experiment with OVCAR-4 ovarian it was 16 µM. The GI50 in the experiment with OVCAR-8 ovarian is 21 µM; in the experiment with SF-295 CNS, 14.4 µM; with SNB-75 CNS it was 15.4 µM; with UACC-257 melanoma it was 20.6 µM. Also, the TGI in the experiment on EKVX NSCLC was 30.9 µM; in the experiment on HCT-116 colon, 29.3 µM; in the experiment on HL-60(TB) leukemia, 56 µM; in the experiment with HOP-92 NSCLC it was 22 µM; in the experiment on NCI-H522 lung, 29.2 µM; in the experiment with OVCAR-4 ovarian, 30.2 µM. Also, the concentration for total growth inhibition (TGI) was determined as 44.4 µM in the experiment with OVCAR-8 ovarian, 29.6 µM in the experiment on SF-295 CNS, 31 µM in the experiment with SNB-75 CNS and 37.9 µM in the experiment with UACC-257 melanoma.

As for `OC(CCNC12CC3CC(CC(C3)C1)C2)c1ccccc1` (centres undefined), the TGI in the experiment with EKVX NSCLC, in the experiment with HCT-116 colon, in the experiment on HL-60(TB) leukemia, with HOP-92 NSCLC, in the experiment with NCI-H522 lung and in the experiment with OVCAR-4 ovarian was > 100 µM in each case. Also, the TGI in the experiment on OVCAR-8 ovarian, in the experiment on SF-295 CNS, in the experiment on SNB-75 CNS and in the experiment with UACC-257 melanoma was > 100 µM each time.

For the molecule `Cc1cc(NCCCN(C)C)c2ccc3c(ccc4c(NCCCN(C)C)cc(C)nc43)c2n1`, the GI50 in the experiment with EKVX NSCLC is 0.246 µM; in the experiment on HCT-116 colon it was 0.17 µM; with HL-60(TB) leukemia, 0.0375 µM; in the experiment on HOP-92 NSCLC it was 0.0665 µM; with NCI-H522 lung, 0.202 µM; with OVCAR-4 ovarian, 0.162 µM. The GI50 in the experiment on OVCAR-8 ovarian is 0.114 µM; in the experiment with SF-295 CNS, 0.205 µM; with SNB-75 CNS it was 0.165 µM; in the experiment on UACC-257 melanoma, 0.199 µM. For the same molecule, the TGI was found to be 0.821 µM in the experiment with EKVX NSCLC; 0.439 µM in the experiment on HCT-116 colon; 0.298 µM in the experiment with HOP-92 NSCLC; 0.554 µM in the experiment on NCI-H522 lung; 0.508 µM in the experiment on OVCAR-4 ovarian; 0.295 µM in the experiment with OVCAR-8 ovarian. Further, the TGI was determined as 0.745 µM in the experiment with SF-295 CNS, 0.42 µM with SNB-75 CNS and 0.499 µM in the experiment with UACC-257 melanoma.

For `CCOc1cc2c(C(=O)CC)c(O)ccc2o1`, the TGI was > 100 µM in the experiment with EKVX NSCLC; > 72.5 µM with HCT-116 colon; 23 µM in the experiment on HL-60(TB) leukemia; > 100 µM in the experiment with HOP-92 NSCLC; > 100 µM in the experiment with NCI-H522 lung; > 56.8 µM in the experiment on OVCAR-4 ovarian. Besides, the TGI with OVCAR-8 ovarian, in the experiment with SF-295 CNS, in the experiment on SNB-75 CNS and in the experiment on UACC-257 melanoma was > 100 µM in each case.

Take `C=C/C=C/NC(=O)OCc1ccccc1`: the TGI in the experiment on EKVX NSCLC, in the experiment on HCT-116 colon, with HL-60(TB) leukemia, with HOP-92 NSCLC, with NCI-H522 lung and in the experiment on OVCAR-4 ovarian was > 100 µM in each case. The total growth inhibition concentration (TGI) in the experiment on OVCAR-8 ovarian, in the experiment with SF-295 CNS, in the experiment on SNB-75 CNS and with UACC-257 melanoma was > 100 µM each time.

Turning to `CC1=C(c2cccc(O)c2)[C@H](c2ccc(OCCN3CC(CF)C3)cc2)Oc2ccc(O)cc21`, the GI50 with EKVX NSCLC is 9.61 µM; in the experiment with HCT-116 colon, 4.46 µM; in the experiment with HL-60(TB) leukemia it was 4.39 µM; in the experiment with HOP-92 NSCLC it was 2.52 µM; in the experiment on NCI-H522 lung it was 16 µM; in the experiment on OVCAR-4 ovarian it was 9.62 µM. Moreover, the GI50 was 12.9 µM in the experiment on OVCAR-8 ovarian, 4.27 µM with SF-295 CNS, 10.5 µM with SNB-75 CNS and 4.98 µM in the experiment with UACC-257 melanoma. In addition, the TGI was 21.7 µM in the experiment on EKVX NSCLC; 17.5 µM in the experiment on HCT-116 colon; 22.2 µM in the experiment on HL-60(TB) leukemia; 13.8 µM in the experiment on HOP-92 NSCLC; 32.8 µM with NCI-H522 lung; 21.7 µM in the experiment on OVCAR-4 ovarian. The concentration for total growth inhibition (TGI) worked out at 32.6 µM with OVCAR-8 ovarian, 16.5 µM in the experiment on SF-295 CNS, 22.3 µM with SNB-75 CNS and 18.2 µM in the experiment on UACC-257 melanoma.

Take `NCCCC[C@@H]1NC(=O)[C@H]2CCCN2C(=O)[C@H](Cc2ccccc2)CNC(=O)[C@H](Cc2ccccc2)NC1=O`: the GI50 in the experiment on EKVX NSCLC was > 37.5 µM; in the experiment on HCT-116 colon it was > 37.5 µM; with HL-60(TB) leukemia, > 11.3 µM; in the experiment on HOP-92 NSCLC, > 37.5 µM; with NCI-H522 lung, > 37.5 µM; in the experiment with OVCAR-4 ovarian, > 37.5 µM. Moreover, the GI50 in the experiment with OVCAR-8 ovarian, in the experiment with SF-295 CNS, with SNB-75 CNS and with UACC-257 melanoma was > 37.5 µM in each case. Also, the TGI with EKVX NSCLC, with HCT-116 colon, in the experiment with HL-60(TB) leukemia, in the experiment with HOP-92 NSCLC, with NCI-H522 lung and in the experiment with OVCAR-4 ovarian was > 37.5 µM each time. Also, the TGI with OVCAR-8 ovarian, with SF-295 CNS, in the experiment on SNB-75 CNS and in the experiment on UACC-257 melanoma was > 37.5 µM each time.
